The values below come from patent publication US20220041559A1, “BENZO-AND PYRIDO-PYRAZOLES AS PROTEIN KINASE INHIBITORS” (ROTTAPHARM BIOTECH S.R.L., priority 2019, published 2022).

One assay has as its target EGFR (Homo sapiens, UniProt P00533). In words: Inhibition of EGF-induced EGFR (Y1068)-phosphorylation (cell-based assay, U87MG). Further details: endogenous in cells; host or cells: U87MG. Particulars: EGF 10 ng/ml, Western blot. Here is the method: U87MG cells (Uppsala 87 Malignant Glioma, a human glioblastoma cell line from ATCC) were plated at 3×10^5 cells/well in 12 w microplates and grown adherent in medium DMEM+10% FBS at 37° C. with 5% CO2. After 24 h, medium was removed and starvation was induced overnight in medium DMEM+0.1% FBS (medium starvation). At the end of incubation, treatment of cells was performed by medium replacement and by adding fresh medium containing or not diluent or test compounds (DMSO 0.1% final concentration) diluted in medium starvation. After 1 hour, EGF stimuli (diluted in medium starvation, 10 ng/ml final concentration) was added to each sample, with the exception of basal sample; plate was then incubated for 15 min at 37° C. with 5% CO2. At the end of the incubation, the medium was removed and cellular lysates were obtained by adding M-PER lysis buffer containing 1× Protease/Phosphatase inhibitors cocktail. Then, lysates were transferred into Eppendorf tubes, sonicated and stored at −80° C.
Protein content was measured by Bradford method. Lysates were analyzed by Western blot for EGFR phosphorylation (Tyrosine 1068) and total receptor amount determination. Densitometric analysis of sample lanes were performed by ImageQuant TL software (GE Healthcare Life Sciences). […]
For orientation: A western blot detects proteins with antibodies after separation by electrophoresis.

A further assay relates to U87MG-luc tumor cells. The experiment in a line: Reduction of tumor growth in intracranial U87MG-luc glioblastoma bearing mice. The assay is classed as in vivo, athymic Nude mice. The note with it: 50 mg/kg orally once a day, days 9-19. How it is done:
Human U87MG cells (Glioblastoma Cancer cell line) were engineered to express the luciferase gene (U87MG-luc). Cultured U87MG-luc tumor cells were intracranially injected in athymic Nude mice. Eight days from injection mice were randomised on the basis of luminescence values emitted by luciferase-expressing U87M-luc tumor cells and divided into 2 treatment groups. The treatment started on day 9 and lasted 10 days. Mice were orally dosed with vehicle or with compound 5 of invention (50 mg/kg, once a day). The tumor growth was evaluated by real-time Bioluminescence Imaging at the end of the treatments period (day 19) and on day 26 and 33, form the cell injection. The tumour growth was reduced in mice treated with compound 5 compared to mice treated with vehicle alone.

The target of another assay is T1, VEGFR2 (KDR) kinase (Homo sapiens, UniProt P35968).
T1 construct: purchased SignalChem
T1 sequence (P35968 20-1356): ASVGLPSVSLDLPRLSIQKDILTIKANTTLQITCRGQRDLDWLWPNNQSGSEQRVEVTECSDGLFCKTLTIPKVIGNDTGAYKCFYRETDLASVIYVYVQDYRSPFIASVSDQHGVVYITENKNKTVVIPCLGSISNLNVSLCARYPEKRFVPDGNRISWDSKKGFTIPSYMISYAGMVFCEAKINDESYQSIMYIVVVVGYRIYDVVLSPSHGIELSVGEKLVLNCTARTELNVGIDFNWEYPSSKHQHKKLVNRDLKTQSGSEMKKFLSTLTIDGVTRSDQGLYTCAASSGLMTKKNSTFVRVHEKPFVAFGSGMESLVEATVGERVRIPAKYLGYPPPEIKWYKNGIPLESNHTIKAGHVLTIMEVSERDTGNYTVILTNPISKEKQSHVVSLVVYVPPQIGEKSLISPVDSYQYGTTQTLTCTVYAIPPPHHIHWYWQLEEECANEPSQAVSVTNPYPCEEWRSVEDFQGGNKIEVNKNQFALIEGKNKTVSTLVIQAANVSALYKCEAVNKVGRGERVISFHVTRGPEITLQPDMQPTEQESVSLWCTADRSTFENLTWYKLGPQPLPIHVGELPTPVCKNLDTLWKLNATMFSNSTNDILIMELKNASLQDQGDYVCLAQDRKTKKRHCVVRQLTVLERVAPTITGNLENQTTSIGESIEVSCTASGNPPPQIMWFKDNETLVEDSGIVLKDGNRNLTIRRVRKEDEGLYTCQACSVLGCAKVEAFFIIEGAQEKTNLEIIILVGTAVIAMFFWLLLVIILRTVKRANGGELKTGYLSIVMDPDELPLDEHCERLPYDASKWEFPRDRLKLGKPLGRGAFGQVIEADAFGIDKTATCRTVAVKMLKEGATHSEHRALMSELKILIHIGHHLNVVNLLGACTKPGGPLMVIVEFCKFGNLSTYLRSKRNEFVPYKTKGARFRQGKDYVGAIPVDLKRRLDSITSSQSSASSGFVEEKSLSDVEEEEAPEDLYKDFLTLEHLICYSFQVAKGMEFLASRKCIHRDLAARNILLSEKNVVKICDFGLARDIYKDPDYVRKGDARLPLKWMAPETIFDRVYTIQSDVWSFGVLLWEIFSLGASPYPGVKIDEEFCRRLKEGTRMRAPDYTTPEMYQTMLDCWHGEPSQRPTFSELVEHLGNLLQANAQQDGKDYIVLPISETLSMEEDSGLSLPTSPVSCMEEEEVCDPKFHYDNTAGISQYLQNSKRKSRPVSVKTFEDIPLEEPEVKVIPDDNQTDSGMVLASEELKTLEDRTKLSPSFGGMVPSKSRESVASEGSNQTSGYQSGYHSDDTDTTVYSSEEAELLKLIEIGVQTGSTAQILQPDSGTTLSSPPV
The experiment in a line: ADP-Glo in vitro kinase assay, VEGFR2 kinase inhibition. It is filed as biochemical. Particulars: ATP 50 μM, 30 minutes at room temperature. Here is the method: The ADP-Glo™ Kinase Assay (Promega), monitoring ADP produced in the kinase reaction, was performed in two steps. In the first one, after the kinase reaction, the ADP-Glo™ Reagent is added to terminate the kinase reaction and deplete the remaining ATP. In the second step, the Kinase Detection Reagent is added to simultaneously convert ADP to ATP (ATPn or newly synthesized ATP) and introduce luciferase and luciferin, allowing the ATPn to be measured (luciferase/luciferin reaction). The amount of light generated correlates with the amount of ATPn (indirectly with the ADP produced in kinase reaction).
Kinase reaction was performed in 10 μl in a white 384-well plate, inhibitor solutions in DMSO/Kinase buffer (40 mM Tris-Cl, 20 mM MgCl2, 0.1 mg/ml BSA, 50 μM DTT, pH 7.5) and VEGFR2 (KDR) kinase in Kinase buffer (SignalChem, 0.5 ng/μl final concentration in assay) were pre-incubate 15 minutes at room temperature. At the kinase concentration selected, a signal-to negative control ratio >10 was calculated, according to supplier indication. In samples representing the Total enzymatic activity or the negative control (no enzyme), inhibitor solution was replaced by diluents (1 DMSO in kinase buffer, final concentration) or ultra-pure water, respectively.
The range of inhibitor concentrations was from 10^−11 M up to 3×10^−6 M (final concentration in assay) and each experimental point was performed in duplicate.
To start the reaction, a substrate/ATP mix (50 μM final concentration, near to ATP Km value) was added to each sample and after 30 minutes incubation at room temperature, ADP-Glo™ Reagent and Kinase Detection Reagent, incubated in sequence according to the respective incubation time and supplier indication, allowed to stop and develop the kinase reaction. The luminescence was measured with a plate-reading luminometer (Envision 2104 Multilabel reader, PerkinElmer). The percentage of inhibition was calculated towards the Total enzymatic activity and the corresponding curves were analyzed by non linear curve fitting (GraphPad software, version 7 for Windows), allowing to calculate the IC50 value±standard error of the value

Another assay deals with T2, FYN (Homo sapiens, UniProt P06241).
T2 construct: purchased CarnaBioscience
T2 sequence (P06241 whole entry): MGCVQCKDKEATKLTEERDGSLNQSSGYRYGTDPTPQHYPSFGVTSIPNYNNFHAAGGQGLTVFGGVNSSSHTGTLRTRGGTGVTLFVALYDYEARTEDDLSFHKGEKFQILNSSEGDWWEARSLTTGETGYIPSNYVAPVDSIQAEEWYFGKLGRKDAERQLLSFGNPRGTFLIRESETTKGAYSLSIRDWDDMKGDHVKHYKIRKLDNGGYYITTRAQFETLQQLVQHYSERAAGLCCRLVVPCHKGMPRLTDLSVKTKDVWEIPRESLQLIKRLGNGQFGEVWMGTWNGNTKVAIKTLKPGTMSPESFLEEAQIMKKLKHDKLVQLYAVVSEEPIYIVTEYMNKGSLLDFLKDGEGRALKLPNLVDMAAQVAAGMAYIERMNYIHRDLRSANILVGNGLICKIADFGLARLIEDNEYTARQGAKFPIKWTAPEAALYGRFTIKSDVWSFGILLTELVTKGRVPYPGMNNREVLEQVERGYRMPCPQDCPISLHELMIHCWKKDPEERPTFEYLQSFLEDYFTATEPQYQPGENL
In words: Z'-LYTE in vitro kinase assay, FYN kinase inhibition. The assay is classed as biochemical. In outline:
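Active FYN incubated with Z′-LYTE Tyr 2 peptide, near-Km ATP and compound (10^−10 to 10^−5 M final, 1% DMSO) in 50 mM Hepes pH 7.5, 10 mM MgCl2, 1 mM EGTA, 0.01% Brij-35, 60 min at 25° C. Protease development then coumarin/fluorescein FRET readout gives % phosphorylation; IC50 by non-linear fitting.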

One may read the IC50 as the concentration that gives 50% inhibition. Lower therefore signals inhibition by little substance.

EGFR, sequence (P00533 25-1210): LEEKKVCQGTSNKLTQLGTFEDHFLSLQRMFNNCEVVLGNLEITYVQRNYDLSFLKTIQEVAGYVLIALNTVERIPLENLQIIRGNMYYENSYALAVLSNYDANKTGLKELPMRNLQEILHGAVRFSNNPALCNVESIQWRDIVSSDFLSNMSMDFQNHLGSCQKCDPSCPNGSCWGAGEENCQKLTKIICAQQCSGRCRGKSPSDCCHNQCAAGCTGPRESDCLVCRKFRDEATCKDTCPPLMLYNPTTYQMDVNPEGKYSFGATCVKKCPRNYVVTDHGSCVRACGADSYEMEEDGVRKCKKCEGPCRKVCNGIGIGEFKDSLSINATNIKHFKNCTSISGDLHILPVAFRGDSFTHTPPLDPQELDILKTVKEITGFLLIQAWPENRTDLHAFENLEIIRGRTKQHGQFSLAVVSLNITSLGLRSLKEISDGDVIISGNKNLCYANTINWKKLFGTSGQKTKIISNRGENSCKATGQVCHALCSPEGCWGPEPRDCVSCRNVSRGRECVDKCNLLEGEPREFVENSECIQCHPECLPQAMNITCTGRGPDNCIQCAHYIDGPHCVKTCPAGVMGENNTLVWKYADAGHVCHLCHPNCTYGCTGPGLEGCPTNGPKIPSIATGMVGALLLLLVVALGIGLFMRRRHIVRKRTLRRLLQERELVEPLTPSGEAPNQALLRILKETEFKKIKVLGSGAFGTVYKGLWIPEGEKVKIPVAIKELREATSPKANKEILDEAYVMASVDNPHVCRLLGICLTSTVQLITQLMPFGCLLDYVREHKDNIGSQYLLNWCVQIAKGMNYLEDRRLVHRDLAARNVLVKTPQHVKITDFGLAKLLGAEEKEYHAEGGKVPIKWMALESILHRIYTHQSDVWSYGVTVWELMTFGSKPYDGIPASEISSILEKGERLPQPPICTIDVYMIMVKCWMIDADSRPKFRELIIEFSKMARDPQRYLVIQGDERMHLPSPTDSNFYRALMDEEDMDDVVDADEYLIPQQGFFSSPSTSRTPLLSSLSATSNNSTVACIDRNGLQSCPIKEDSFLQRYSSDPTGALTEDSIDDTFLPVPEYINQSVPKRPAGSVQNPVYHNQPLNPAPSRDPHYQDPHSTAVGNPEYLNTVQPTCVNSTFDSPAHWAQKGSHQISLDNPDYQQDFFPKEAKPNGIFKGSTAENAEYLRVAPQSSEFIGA

Consider `CN1CCC(c2ccc(C(=O)Nc3n[nH]c4nc(Nc5ccccc5F)ccc34)cc2)CC1` [Compound 5, N-(6-((2-fluorophenyl)amino)-1H-pyrazolo[3,4-b]pyridin-3-yl)-4-(1-methylpiperidin-4-yl)benzamide], for which the IC50 against EGFR was found to be 3000 nM; against VEGFR2 (KDR) kinase, 82 nM; on FYN (near-Km ATP, 60 minutes at 25° C.) it was 69 nM. In addition, the “inhibition of tumour growth (percentage of radiance inhibition)” value in the assay with U87MG-luc tumor cells (day 19) is 24.9%; in the assay on U87MG-luc tumor cells (day 26) it was 34.4%; in the assay on U87MG-luc tumor cells (day 33) it was 60.4%. Moreover, at FYN (Table 17), the “FYN kinase inhibition, result in words” value is given as “more active”.
